The conditions of data set [1]: Phase 1 and 2 metabolism; cited from earlier work.
A further data set deals with InhA. The note with it: binds preferentially to InhA:NAD+ complex; cited from earlier work.
For data set [2] the following is noted: in vivo, iv.
For another data set, the system named is M. tuberculosis. The note with it: cited from earlier work.
Data set [3] deals with Staphylococcus aureus FabI (saFabI). The following applies: cited from earlier work.
In another data set the test system is MRSA. The note with it: cited from earlier work.
A further data set is described as follows: PET brain uptake. The note with it: baboon, i.v.
On the set-up of data set [4]: species or system mice. The following applies: mouse, in vivo.
Details of data set [5]: species or system baboon. The following applies: in vivo.

Each structure is given as a SMILES string. Where two headings read alike, the source gives them in different places.

Consider four compounds from PMC4607644 (Bioorganic & medicinal chemistry letters, 2015).

With `CCCCCCc1ccc(Oc2ccccc2)c(O)c1` [PT04], the route of metabolism result in data set [1] was “O-glucuronidation was a primary route for metabolism”.
With `CCCCCCc1ccc(Oc2ccccc2C)c(O)c1` [PT70], the “residence time on the target” value with InhA is recorded as 24 min. Also, the “ability to penetrate the blood brain barrier (BBB)” value in [2] is given as “able to penetrate the brain”. The “antibacterial activity in a mouse model of tuberculosis infection” value in the data set with M. tuberculosis was “shows antibacterial activity”. In addition, in the data set on M. tuberculosis (infected mice, lungs), the “bacterial burden in the lungs” value was “did not affect the bacterial burden”. In addition, the “bacterial load in the spleens” value with M. tuberculosis (infected mice, spleens) was “reduced the bacterial load”.
Turning to `CCCCCCc1ccc(Oc2ccccc2C#N)c(O)c1` [PT119], in data set [3], the “residence time on saFabI” value is given as ~ 12.5 h. In addition, in the data set with MRSA, the “efficacy in a mouse model of MRSA infection” value is listed as “demonstrates efficacy”. Besides, the “ability to penetrate the blood brain barrier (BBB)” value in the data set “PET brain uptake” (images acquired for 90 min) is “able to penetrate the brain”. For the same compound, the “propensity to cross the BBB, qualitative comparison” value in the data set “PET brain uptake” (qualitative) is “higher propensity to cross the BBB than PT70”.
For the compound `CCCCCCc1ccc(Oc2ccccc2[11CH3])c(O)c1` [[^11C]PT70], in [4], the “concentration in the liver versus other peripheral organs” value is “much higher in the liver” and the “time of highest concentration of drug after injection” value was found to be 20 min. Also, the “elimination into the bladder” value in [5] (baboon) is “another large portion of the injected [11C]PT-70 was eliminated into the bladder”. In data set [5] (iv), the “clearance from the heart, lung and blood” value is recorded as “cleared rapidly”.
